Article PMC11202002, “P18: Novel Anticancer Peptide from Induced Tumor-Suppressing Cells Targeting Breast Cancer and Bone Metastasis” (Cancers, 2024)

Legend:
Rac1 = experiment: FRET-based GTPase activity assay; format: cell-based; settings: MDA-MB-231 cells; 25 µg/mL for 3 h
Source text: (§1) The three FRET GTPase biosensors were utilized to monitor the activities of Rac1, Cdc42, and RhoA in response to ACPs. GTPase activity was estimated based on the emission ratio of yellow fluorescent protein (YFP) to cyan fluorescent protein (CFP), using a Nikon Ti-E inverted microscope with an EMCCD camera (Photometrics, Tucson, AZ, USA), a filter wheel controller (Sutter Instruments, Novato, CA, USA), and a Nikon Perfect Focus System. To reduce photobleaching, an Intensilight fluorescence illuminator (Nikon, Tokyo, Japan) was employed with a neutral-density 32 filter (3% transmittance). The images were captured with a 40× (0.75 numerical aperture) objective, and they were scaled utilizing the color bar, as previously published.
(§2) This study next investigated the role of P18 in regulating the activity of Rho family GTPases. MDA-MB-231 breast cancer cells were transfected with Rac1, Cdc42, or RhoA biosensors and treated with P18 at a concentration of 25 µg/mL for 3 h. The GTPase activity was assessed by measuring the emission ratio of the biosensor within individual live cells.

Cdc42 = experiment: FRET-based GTPase activity assay; format: cell-based; settings: MDA-MB-231 cells; 25 µg/mL for 3 h
Source text: as §1, §2

RhoA = experiment: FRET-based GTPase activity assay; format: cell-based; settings: MDA-MB-231 cells; 25 µg/mL for 3 h
Source text: as §1, §2

[1] = system: 4T1.2 mammary tumor cells; experiment: MTT-based cell viability assay; design: species or system mouse; settings: 25 μg/mL
Protocol: (§3) Using 96-well plates with approximately 2000 cells per well, an MTT-based metabolic activity assay was performed. The cells were treated with agents and incubated for two days. On the fourth day, they were stained with 0.5 mg/mL thiazolyl blue tetrazolium bromide (M5655, Sigma). The optical density, used to assess metabolic activity, was measured at 562 nm. For the EdU-based proliferation activity assay, the cells were seeded in 96-well plates at about 1000 cells per well. A fluorescence-based cell proliferation kit (Click-iT™, EdU Alexa Fluor™ 488 Imaging Kit; Thermo Fisher, Waltham, MA, USA) was used according to the manufacturer’s instructions.

[2] = system: TT2 osteosarcoma cell line; experiment: MTT-based cell viability assay; settings: TT2; 25 μg/mL
Protocol: as §3

PANC198 PDAC cells = experiment: MTT-based cell viability assay; settings: PANC198 (PAN198); 25 μg/mL
Protocol: as §3

PANC1 PDAC cells = experiment: MTT-based cell viability assay; settings: 25 μg/mL
Protocol: as §3

MDA-MB-231 cells [3] = experiment: Transwell invasion assay; format: cell-based, human; settings: 25 µg/mL
Protocol: (§4) The invasion capacity of cancer cells in response to ACPs was assessed using 8 µm pore transwell chambers (353182, Thermo Fisher) in a 12-well plate. The chambers were coated with 300 µL Matrigel (100 µg/mL) and filled with 500 µL of the serum-free medium. After washing the chamber three times with the serum-free medium, approximately 7 × 10^4 cells in 300 µL serum-free DMEM were placed in the upper chamber, while 800 µL medium was added to the lower chamber. Cells that migrated to the lower side of the membrane were fixed with methanol and stained with crystal violet. Five random images were captured with an inverted optical microscope at 100× magnification, and the average number of stained cells, representing the invasion capacity, was determined.

MDA-MB-436 cells [4] = experiment: Transwell invasion assay; format: cell-based, human; settings: 25 µg/mL
Protocol: as §4

MDA-MB-231 cells [5] = experiment: Scratch-based motility assay; format: cell-based, human; settings: 25 µg/mL, 24 h
Protocol: (§5) To evaluate the two-dimensional motility of cancer cells, a wound-healing scratch assay was utilized, and the change in the scratch area was determined. On day 1, ~3 × 10^5 cells were seeded in 12-well plates, and, on day 2, a scratch was made on the cell layer, with the tip of a plastic pipette. Using a light microscope (40×), cell-free zones were imaged after 0 h and 24 h, and the alteration in their areas was quantified by Image J (Version 1.54 f).

MDA-MB-436 cells [6] = experiment: Scratch-based motility assay; format: cell-based, human; settings: 25 µg/mL, 24 h
Protocol: as §5

[7] = system: MDA-MB-231 breast cancer cells; experiment: Western blot analysis; format: cell-based, human; settings: 25 µg/mL
Protocol: (§6) Cells were lysed using a RIPA lysis buffer (sc-24948, Santa Cruz Biotech, Dallas, TX, USA) containing protease inhibitors (PIA32963, Thermo Fisher) and phosphatase inhibitors (2006643, Cal-biochem, Billerica, MA, USA). The proteins were separated on 10–15% SDS gels (Bio-Rad Laboratories, Hercules, CA, USA) and transferred to a polyvinylidene difluoride membrane (IPVH00010, Millipore, Billerica, MA, USA). The membrane was incubated with primary antibodies, followed by incubation with secondary antibodies (7074S/7076S, Cell Signaling, Danvers, MA, USA). The antibodies used included those against Snail, p-Src, Src, cleaved caspase 3, caspase 3, RANKL, Cdc42, Col1 and RhoA (Cell Signaling), ALP (Santa Cruz Biotech), OCN (Abcam, Boston, MA, USA), with β-actin (Sigma) as a control. The protein levels were detected using SuperSignal West Femto Maximum Sensitivity Substrate (PI34096, Thermo Fisher) and a luminescent image analyzer (LAS-3000, Fuji Film, Tokyo, Japan).

[8] = system: MDA-MB-436 breast cancer cells; experiment: Western blot analysis; format: cell-based, human; settings: 25 µg/mL
Protocol: as §6

MC3T3 osteoblasts = format: cell-based
Protocol: as §3

Jurkat lymphocytes = format: cell-based
Protocol: as §3

[9] = system: 4T1.2 mammary tumor cells; experiment: Scratch-based motility assay; format: cell-based, mouse; settings: 25 μg/mL
Protocol: as §5

Col1, ALP, OCN = experiment: Western blot analysis of osteoblast development proteins; format: cell-based; settings: Suppl. Figure S1d
Protocol: as §6

[10] = system: RANKL-stimulated osteoclasts; experiment: Osteoclast differentiation and maturation; format: cell-based; settings: 25 μg/mL
[11] = system: peripheral blood mononuclear cells; format: cell-based, human
Protocol: as §3

MDA-MB-231 cells [12] = experiment: MTT-based cell viability assay; design: species or system human
Protocol: as §3

MCF7 cells = experiment: MTT-based cell viability assay; design: species or system human; settings: 5, 10, 15, and 25 µg/mL of P18
Protocol: as §3

- Rac1 GTPase activity (FRET biosensor emission ratio) (Rac1): no significant change
- Cdc42 GTPase activity (FRET biosensor emission ratio) (Cdc42): significant decrease
- RhoA GTPase activity (FRET biosensor emission ratio) (RhoA): significant decrease
Sequence: TDYMVGSYGPR [P18]
- MTT-based viability [1]: consistently reduced
- MTT-based viability [2]: significantly decreased
- MTT-based viability (PANC198 PDAC cells): significantly decreased
- MTT-based viability (PANC1 PDAC cells): significantly decreased
- transwell invasion (MDA-MB-231 cells [3]): decreased
- transwell invasion (MDA-MB-436 cells [4]): inhibited
- scratch-based motility (MDA-MB-231 cells [5]): effectively reduced
- scratch-based mobility (MDA-MB-436 cells [6]): inhibited
- levels of RhoA and Cdc42 [7]: slight upregulation
- levels of cleaved caspase 3 [7]: increasing
- levels of p-Src and Snail [7]: downregulated
- levels of RhoA and Cdc42 [8]: slight upregulation
- levels of cleaved caspase 3 [8]: increasing
- levels of p-Src and Snail [8]: downregulated
- MTT viability (MC3T3 osteoblasts): did not exhibit any significant effects
- MTT viability (Jurkat lymphocytes): did not exhibit any significant effects
- scratch-based mobility [9]: consistently reduced
- expression of type I collagen (Col1), alkaline phosphatase (ALP), and osteocalcin (OCN) (Col1, ALP, OCN): upregulated
- differentiation and maturation of RANKL-stimulated osteoclasts [10]: inhibited
- number of multi-nucleated TRAP-positive osteoclasts (more than three nuclei) [10]: significantly reduced
- MTT viability [11]: did not exhibit any significant effects
- decrease in MTT viability (MDA-MB-231 cells [12]; 5, 10, 15, and 25 µg/mL of P18): dose-dependent
- MTT-based relative viability (MDA-MB-231 cells [12]; relative to cn = 1.00, peptide concentration not given, treated two days, OD 562 nm): 0.86
- decrease in MTT viability (MCF7 cells): dose-dependent
